According to patent US20210318315A1, “ULTRA-HIGH-THROUGHPUT MICROFLUIDIC ENZYME SCREENING PLATFORM FOR ENZYME DEVELOPMENT” (National University of Singapore, priority 2020, published 2021):

Experiments:
[1] = tested on: thiolated DBC1 protein (deleted in breast cancer 1), NAD^+ binding domain linked to CdSe/CdS/CdZnS/ZnS quantum dot; test: NAD^+ detection with quantum dot sensor linked to thiolated DBC1 protein (fluorescence quenching); assay type: biochemical; details: for reduction of fluorescence signal of the sensor: 1.5 μM of sensor, in microfluidics (droplets)
Procedure: (4) Preparation of thiolated DBC1 protein (deleted in breast cancer 1). DBC1 protein was prepared by treated protein with 2-iminothiolane to introduce sulfhydryl residues onto a sulfydril:protein ratio of ˜20. Five mg of DBC1 dissolved in 1 mL of PBS (pH 7.4) was allowed to react with 2 mg of 2-iminothilane.HCl and kept at 4° C. for 2 h with vortex. The resulting solution was filtered through a size-exclusion centrifugal filter device (Micron YM-30, Millipore).
(5) Preparation of DBC1 protein coated QDs. The MPA capped QDs were incubated with thiolated DBC1 protein in HEPES buffer (pH 7.4) for 5 days at 4° C.
Another example for NAD^+ sensing was developed with a quantum dot fluorescence sensor through FRET effect (FIG. 13A). The highly fluorescent CdSe quantum dot core was coated with 3-mercaptopropionic acid and linked to a NAD^+ binding domain (thiolated DBC1 protein sensor). The protein sensor was reported to specifically bind NAD^+. When such binding occurs, the fluorescence of quantum dot was effectively quenched (FIG. 13B). Consequently, the fluorescence signal of the quantum dot sensor was negatively correlated to NAD+ concentration. This allowed accurate determination of NAD^+ based on the change of fluorescence signal.
The performance of the quantum dot NAD^+ sensor was explored. The quantitative NAD^+ quenching was further examined and validated with an excitation at 538 nm and the fluorescence emission is detected at 595 nm. As concentration of NAD^+ increased, the fluorescence of the sensor was quenched at a very low NAD^+ concentration. The sensor enabled the detection of NAD^+ with a detection limit of 30 μM with a sensor concentration of 1.5 μM with a fixed incubation time of 20 minutes. When the NAD^+ concentration reached 250 μM and above, more than 90% fluorescence signal is quenched. […]
For the NAD^+ detection in microfluidics, the fluorescence of 1.5 μM of sensor was examined with different concentration of NAD^+. The fluorescence signal of the sensor reduced ˜25% when incubated with 200 μM NAD^+, and reduced 45% in the presence of 250 μM NAD^+ (FIG. 14A). […]

[2] = tested on: fluorescent protein-based NAD^+ biosensor (fluorescent core domain and bipartite NAD^+ binding domain); test: NAD^+ detection with fluorescent protein biosensor in microdroplets (fluorescence quenching by NAD^+ binding); assay type: biochemical; details: 1 mM of NAD^+, excitation at 488 nm, emission at 520 nm
Text: In some embodiments, the detection reagent comprises a biosensor, such as a protein biosensor, as one non-limiting example of a biosensor. The biosensor may be configured to react with the cofactor (or a redox couple of the cofactor) to generate (or quench) a luminescent signal. The generation (or quenching) of the luminescent signal may be used to detect, screen, and/or isolate droplets containing the target enzyme. In one example, the protein biosensor comprises a fluorescent core domain and a bipartite NAD+ and/or NADP+ binding domain. The fluorescent core domain has an excitation at 488 nm and an emission at 520 nm. In the presence of NAD+ and/or NADP+, the fluorescence from the core domain is quenched by binding of the NAD+ and/or NADP+ to the bipartite binding domain.
A fluorescent protein-based NAD^+ biosensor was developed for quantitative detection of NAD^+. […] In this setup, the fluorescence from the core domain was quenched by NAD^+ binding corresponding to the concentration of the bound NAD^+ (FIG. 12A). The biosensor fluorescence intensity and NAD^+ concentration were negatively correlated in the range of 1 to 1000 μM of NAD^+. […] A nearly-linear correlation between the biosensor fluorescence intensity and NAD^+ concentration was shown at range of 50 μM to 1000 μM of NAD^+.

`NC(=O)c1ccc[n+]([C@@H]2O[C@H](COP(=O)([O-])OP(=O)(O)OC[C@H]3O[C@@H](n4cnc5c(N)ncnc54)[C@H](O)[C@@H]3O)[C@@H](O)[C@H]2O)c1` [NAD^+, nicotinamide adenine dinucleotide] was tested, and the “reduction of fluorescence signal of the sensor” value ([1]; 200 μM NAD^+) was ~25%, the “reduction of fluorescence signal of the sensor” value ([1]; 250 μM NAD^+) was 45% and the fluorescence signal quenched ([1]; NAD^+ 250 μM and above, sensor 1.5 μM, incubation 20 minutes, excitation at 538 nm, emission at 595 nm) was “more than 90%”. The “lower fluorescence signal (quenching by NAD^+)” value [2] was 21%.
